“And” between values parts separate entries of the source, which are not always exact repeats. Identical values can stand only once.
Key:
abdominal adhesions [1] = assay: Post-surgical abdominal adhesions in rats, Halofuginone i.p. injection: number and severity of adhesions; type: in vivo; design: key to Adhesion Score: 0=no adhesions; I=a thin, filmy, easily separated adhesion; II=several thin adhesions; III=a thick, broad adhesion; IV=several thick adhesions
Procedure: (§1) The experiments were performed as follows. First, the abdomen of the rats was shaved and prepared with iodine and alcohol. The abdominal cavity was entered through a mid-line incision. The small intestine was scraped from the duodenum down to from about 9 to about 10 cm from the cecum, until capillary bleeding occurred. To avoid drying, Hartman's solution at about 37° C. was occasionally dripped on the intestine. After replacement of the intestine into the abdominal cavity, the abdomen was closed in two layers with continuous 00 chromic catgut suture. […] Res., Vol 17, p. 254-258, 1985]. After 21 days, the rats were sacrificed and the sutures were reopened to determine the level of adhesion formation and to take biopsies of the tissue.
The experiment was performed as follows. Abdominal adhesions were induced in two groups of rats as described above in Example 1. […] One group of the rats which underwent surgery received an i.p. injection of Halofuginone every day after the operation for 21 days. The rats were dosed according to body weight, with 1 ug of Halofuginone given per 25 g of body weight. […]
Two different tests were performed to assess the effect of Halofuginone on the number and severity of adhesions in rats which underwent surgery. […] At the end of 21 days, the rats were weighed and the number and severity of adhesions were determined according to a double-blind procedure. […]

abdominal adhesions [2] = assay: Post-surgical abdominal adhesions in rats, Halofuginone in the diet: number and severity of adhesions; type: in vivo; design: key to Adhesion: 0=no adhesions; I=a thin, filmy, easily separated adhesion; II=several thin adhesions; III=a thick, broad adhesion; IV=several thick adhesions; conditions: for Adhesion: one rat per row
Procedure: as §1
In the double-blind procedure, adhesions were classified according to the following grading: 0=no adhesions; I=a thin, filmy, easily separated adhesion; II=several thin adhesions; III=a thick, broad adhesion and IV=several thick adhesions. Clearly, 0 is the least severe and IV is the most severe grade.
(§2) In the second experiment, Halofuginone was administered in the diet of two groups of rats at a concentration of 5 mg/kg dry feed for 4 days before surgery, as a pretreatment. Two other groups of rats were fed a normal diet and served as control groups. One of the groups of rats fed Halofuginone and one control group the underwent surgery as described above. Halofuginone treatment was continued for 21 days following surgery, after which the rats were sacrificed and the number and severity of adhesions were determined, and body weight was measured.

collagen type I [3] = assay: Collagen α1(I) gene expression and collagen type I content in surgically insulted abdominal tissue (in situ hybridization, Sirius red); type: in vivo; conditions: rats with surgery, Halofuginone i.p. daily for 21 days
Procedure: as §1
The tissue was sectioned so that histological studies could be performed. Briefly, the tissue samples were collected into phosphate-buffered saline (PBS) and fixed overnight in 4% paraformaldehyde in PBS at 4° C. Serial 5 μm sections were prepared after the samples had been dehydrated in graded ethanol solutions, cleared in chloroform and embedded in Paraplast. Differential staining of collagenous and non-collagenous proteins were performed with 0.1% Sirius red and 0.1% fast green as a counter-stain in picric acid. This procedure stains collagen red [Gascon-Barre, M., et al., J. Histochem. Cytochem., Vol 37, p. 377-381, 1989].
For hybridization with the genetic probe, the sections were deparafinized in xylene, rehydrated through a graded series of ethanol solutions, rinsed in distilled water for 5 minutes and then incubated in 2×SSC [What is the recipe?] at 70° C. for 30 minutes. The sections were then rinsed in distilled water and treated with pronase, 0.125 mb/ml in 50 mM Tris-HCl, 5 mM EDTA, pH 7.5 for 10 minutes. […] Alkaline phosphatase activity was detected in the sections as previously described [Knopov, V., et al., Bone, Vol 16 p. […]
After 21 days, tissue samples were taken for histological analysis as described above. Both collagen type I content of the tissue, and the level of collagen a(1)I gene expression were measured.

alkaline phosphatase = assay: Alkaline phosphatase activity in tissue sections after abdominal surgery; type: in vivo; conditions: rats with surgery injected with Halofuginone, 21 days; FIG. 3C
Procedure: For hybridization with the genetic probe, the sections were deparafinized in xylene, rehydrated through a graded series of ethanol solutions, rinsed in distilled water for 5 minutes and then incubated in 2×SSC [What is the recipe?] at 70° C. for 30 minutes. The sections were then rinsed in distilled water and treated with pronase, 0.125 mb/ml in 50 mM Tris-HCl, 5 mM EDTA, pH 7.5 for 10 minutes. After digestion, the slides were rinsed with distilled water, post-fixed in 10% formalin in PBS and blocked in 0.2% glycine. After blocking, the slides were rinsed in distilled water, rapidly dehydrated through graded ethanol solutions and air-dried for several hours. Before hybridization, the 1600 bp rat collagen α1(I) insert was cut out from the original plasmid, pUC18, and inserted into the pSafyre plasmid. The sections were then hybridized with this probe after digoxigenin-labelling. Alkaline phosphatase activity was detected in the sections as previously described [Knopov, V., et al., Bone, Vol 16 p. 329S-334S, 1995].
After 21 days, tissue samples were taken from all three groups of rats and histological sections were prepared as described in Example 1, and alkaline phosphatase activity was measured as described in Example 1.

skin wound [4] = assay: Wound healing and collagen content of skin wounds in irradiated and non-irradiated mice; type: in vivo, C3H mice; conditions: Halofuginone 1 μg/mouse i.p. every other day, 14 days
Procedure: The experiment was conducted as follows. First C3H, defined-flora, pathogen-free female mice of 12-14 weeks of age were anesthetized with 60 mg/kg sodium phenobarbital. The mice were then shaved. One group of mice was then irradiated as follows. First, a flap of skin about 40 mm long and about 20 mm wide was pulled through a slit in the lead cover of an irradiation jig and secured with tape, so that only the flap of skin was exposed. This exposed skin was then irradiated by using a 175 kVp/20 mA orthovoltage X-ray source, with a 2 mm Cu filter at a dose rate of 1.0 Gy/min. A standard dose of 18 Gy was delivered.
All of the mice were then wounded by making a fill depth incision, about 25 mm long, in the skin along the midline of the lower back. Note that for the irradiated animals, the wound was made within the irradiated area, immediately following irradiation. For all mice, the incision was immediately closed by 3-4 metallic wound closure clips which were removed 2 days later.
After wounding, the mice were injected i.p every other day, either with 1 μg/mouse Halofuginone or with saline as a control. After 14 days, 2 days following the last injection, the mice were sacrificed and skin samples were collected into phosphate-buffered saline (PBS) and fixed in 4% paraformaldehyde in PBS at 4° C. […]

skin wound [5] = assay: Wound strength (bursting point of skin strips, Instron tensiometer); type: in vivo, rats; conditions: irradiated or non-irradiated animals, one or six injections of Halofuginone; FIG. 5
Procedure: Wound strength was assessed by preparing rats substantially as described above, except that one group of rats (not irradiated) only received one injection of Halofuginone after wounding. The strength of wounds was measured as follows. First, a square of skin which was approximately 20 mm long and 16 mm wide, and which included the main part of the wound, was excised from sacrificed rats. Next, the skin was cut, perpendicular to the wound, to yield 7 strips of skin, each of which was 2 mm wide. The skin strips were secured between paper reinforcement frames and loaded on an Instron tensiometer for stretching at a constant rate of 25 mm/min. The bursting point was then recorded.

[6] = design: species or system rats; conditions: rat, in vivo, ip
Procedure: The experiment was performed as follows. Abdominal adhesions were induced in two groups of rats as described above in Example 1. […] One group of the rats which underwent surgery received an i.p. injection of Halofuginone every day after the operation for 21 days. The rats were dosed according to body weight, with 1 ug of Halofuginone given per 25 g of body weight. The other group of rats which underwent surgery received saline injections for 21 days.
Two different tests were performed to assess the effect of Halofuginone on the number and severity of adhesions in rats which underwent surgery. […] The experimental method was as follows. For the first test, three groups of rats were prepared as described above in Example 2. At the end of 21 days, the rats were weighed and the number and severity of adhesions were determined according to a double-blind procedure.

[7] = design: species or system rats; conditions: rat, in vivo
Procedure: as §2

[8] = test system: adhesions between tendon and its sheath; conditions: chickens, local treatment through a catheter; cited from earlier work
collagen type I [9] = conditions: cited from earlier work
peritoneal adhesions = conditions: rats, cited from earlier work
[10] = ascribed to effects on many collagen types and Fe++ ion-binding enzymes; cited from earlier work
adhesions = conditions: infertility surgery, gynecological surgeons; cited from earlier work

**Q.** Which “Adhesion Score” value (abdominal adhesions [1]; Group 2: rats with surgery, Halofuginone i.p. 1 ug per 25 g body weight daily for 21 days, one rat per row) does the source give for `O=C(CC1NCCCC1O)Cn1cnc2cc(Br)c(Cl)cc2c1=O` (centres unmarked) [Halofuginone] here?
**A.** 0 (3×) and 0-1 and 2

**Q.** What about the “number and severity of adhesions” value (abdominal adhesions [1]; Halofuginone-treated (i.p.) compared to non-treated rats after surgery) of the same molecule?
**A.** sharply reduced

**Q.** What about the Adhesion (abdominal adhesions [2]; Group 2: rats with surgery, Halofuginone 5 mg/kg dry feed from 4 days before to 21 days after surgery) of the same molecule?
**A.** 0-1 (3×) and 1 (3×) and 1-2 (2×) and 0 (2×)

**Q.** And the Adhesion (abdominal adhesions [2]; Group 3: rats without surgery, Halofuginone 5 mg/kg dry feed)?
**A.** 0

**Q.** And the “number of rats with an adhesion” value (abdominal adhesions [2]; Halofuginone in diet, rats with surgery, compared to untreated operated rats)?
**A.** smaller number

**Q.** And the “damage to the villi” value (collagen type I [3])?
**A.** much less damage

**Q.** And the “collagen α1(I) gene expression” value (collagen type I [3]; FIG. 2C)?
**A.** low levels

**Q.** What about the “collagen type I content” value (collagen type I [3]; FIG. 2F) of the same molecule?
**A.** low level

**Q.** What about the alkaline phosphatase activity (alkaline phosphatase) of the same molecule?
**A.** substantially no alkaline phosphatase activity

**Q.** What about the “collagen content of the wound” value (skin wound [4]; irradiated (18 Gy) mouse, FIG. 4H) of the same molecule?
**A.** significantly lowered

**Q.** What about the wound healing (skin wound [4]; irradiated and non-irradiated mice) of the same molecule?
**A.** healed

**Q.** What about the wound strength (skin wound [5]) of the same molecule?
**A.** did not reduce wound strength

**Q.** What about the “reduction in weight gain” value [6] of the same molecule?
**A.** more pronounced

**Q.** And the weight gain [7]?
**A.** substantially similar

**Q.** And the “prevention of adhesions between tendon and sheath” value [8]?
**A.** effective

**Q.** And the “inhibition of synthesis of collagen type I versus other collagens (α2(I), type II, type III, type X)” value (collagen type I [9])?
**A.** only inhibits the synthesis of collagen type I

**Q.** Which “number of post-surgical adhesions” value (peritoneal adhesions) does the source give for `Oc1cc(O)c2c(c1)O[C@H](c1ccc(O)c(O)c1)[C@@H](O)C2` [cianidanol] here?
**A.** decrease

**Q.** What about the toxicity [10] of the same molecule?
**A.** toxic

**Q.** Which adhesive prevention (adhesions) does the source give for dextran here?
**A.** little success

**Q.** For povidone-iodine, which “reduction of the number of peritoneal adhesions after surgery” value (peritoneal adhesions; effect ascribed to an anti-microbial effect) is on record?
**A.** 35%
